Measured values taken from US20050215644A1, “Methods for increasing neurotransmitter levels using hydroxycitric acid” (InterHealth Nutraceuticals, Inc., priority 2004, published 2005).

Legend:
[1] = test system: isolated rat brain cortex; settings: cited from earlier work
[2] = test system: rat brain cortex neurotransmitters; test: effects of an HCA extract and fluoxetine on rat brain cortex neurotransmitters (reverse phase HPLC with electrochemical detection); assay type: in vivo; settings: for increase in DOPAC / increase in cortex DA / increase in cortex 5-HT: after 90 days; for increase in DOPAC / increase in cortex DA / increase in cortex 5-HT / decrease in cortex HIAA / decrease in DA / decrease in cortex HVA: p<0.05; for decrease in cortex HIAA / decrease in cortex 5-HT / decrease in DA / decrease in cortex HVA: 15 mg/kg per day oral
Protocol: […] The 5% HCA dose corresponds to 25-times the recommended dose of HCA. Animals were euthanized after 30, 60 and 90 days. Brain cortices were analyzed for serotonin (5-HT), its metabolite 5-hydroxyindoleacetic acid (HIAA), dopamine (DA), and its metabolites 3, 4-dihydroxyphenylacetic acid (DOPAC) and homovanillic acid (HVA) content utilizing reverse phase HPLC with electrochemical detection.

[3] = first of three values (day 30 by analogy with b27)
[4] = second of three values (day 60 by analogy with b27)
[5] = third of three values (day 90 by analogy with b27)

O=C(O)CC(O)(C(=O)O)C(O)C(=O)O (single isomer, unassigned; (-)) [HCA, (−)-hydroxycitric acid]
efflux of 5-HT ([1]; HCA applied on its own): concentration-dependent increase
effect on baseline of spontaneous tritium efflux [1]: altered the baseline
effect on potassium-evoked release of 5-HT [1]: no significant effect
increase in DOPAC ([2]; HCA 0.02% oral): 23%
increase in cortex DA ([2]; HCA 0.02% oral): 10%
increase in cortex HVA ([2]; HCA 0.02% oral, day 90, p<0.05): 12%
increase in cortex 5-HT ([2]; HCA 0.2% of diet (10 mg per day) oral): 11%
increase in cortex 5-HT ([2]; HCA 2% of diet (100 mg per day) oral): 9%
increase in DOPAC ([2]; HCA 2% of diet oral): 26%
increase in cortex DA ([2]; HCA 2% of diet oral): 15%
increase in cortex HVA ([2]; HCA 2% of diet oral, day 90, p<0.05): 15%
increase in cortex 5-HT ([2]; HCA 5% of diet (250 mg per day) oral): 12%
increase in DOPAC ([2]; HCA 5% of diet oral): 29%
increase in cortex DA ([2]; HCA 5% of diet oral): 18%
increase in cortex HVA ([2]; HCA 5% of diet oral, day 90, p<0.05): 13%
changes in HIAA ([2]; any of the HCA treatment groups (0.2, 2, 5% of diet; 30, 60, 90 days)): No changes

CNCCC(Oc1ccc(C(F)(F)F)cc1)c1ccccc1 (centres unmarked) [fluoxetine, reference compound]
decrease in cortex HIAA ([2]; 30 days post-treatment): 19%
decrease in cortex HIAA ([2]; 60 days post-treatment): 15%
decrease in cortex HIAA ([2]; 90 days post-treatment): 17%
decrease in cortex 5-HT ([2]; day 30, p<0.05): 9%
decrease in cortex 5-HT ([2]; day 60, p<0.05): 7%
decrease in cortex 5-HT ([2]; day 90, p<0.05): 8%
decrease in DA [2, 3]: 18%
decrease in cortex HVA [2, 3]: 17%
decrease in DA [2, 4]: 15%
decrease in cortex HVA [2, 4]: 13%
decrease in DA [2, 5]: 19%
decrease in cortex HVA [2, 5]: 14%
changes in cortex DOPAC ([2]; all fluoxetine groups (15 mg/kg per day oral; 30, 60, 90 days)): No changes
